Laboratory results as given in paper doi:10.1101/2023.08.20.554024v1, “Structural framework for the understanding spectroscopic and functional signatures of the cyanobacterial Orange Carotenoid Protein families” (biorxiv, 2023).

Assays:
SynOCP1 = target: T1, SynOCP1 (Synechocystis sp. PCC 6803, UniProt P74102); test: absorbance spectrum and photocycle of the holoprotein; format: binding; conditions: bound in E. coli making echinenone; pH 7.6, 150 mM NaCl
T1 construct: gene slr1963; full length from E. coli, tag removed, from earlier work; monomer in solution
T1 sequence (P74102 2-317): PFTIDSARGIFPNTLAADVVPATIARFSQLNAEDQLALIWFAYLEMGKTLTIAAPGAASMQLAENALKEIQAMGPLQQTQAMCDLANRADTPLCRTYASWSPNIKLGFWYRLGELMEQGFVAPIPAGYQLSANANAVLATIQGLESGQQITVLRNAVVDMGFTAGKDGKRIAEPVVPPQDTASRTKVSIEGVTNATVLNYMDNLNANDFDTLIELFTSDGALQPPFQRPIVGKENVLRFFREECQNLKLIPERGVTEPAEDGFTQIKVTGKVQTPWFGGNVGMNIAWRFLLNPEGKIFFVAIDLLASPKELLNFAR

CrinOCP2 = target: T2, CrinOCP2 (Crinalium epipsammum, UniProt K9VSN3, E26A); test: X-ray crystal structure, […] A; format: binding; conditions: bound in E. coli making echinenone; crystals pH 6.5; carotenoid site between NTD and CTD, keto group at Tyr201/Trp288
T2 construct: gene Cri9333_0045; full length from E. coli C41(DE3), codon-optimized, pET28a+, His-tag cut by thrombin leaving N-terminal GSH; monomer
T2 sequence (K9VSN3 1-319 E26A): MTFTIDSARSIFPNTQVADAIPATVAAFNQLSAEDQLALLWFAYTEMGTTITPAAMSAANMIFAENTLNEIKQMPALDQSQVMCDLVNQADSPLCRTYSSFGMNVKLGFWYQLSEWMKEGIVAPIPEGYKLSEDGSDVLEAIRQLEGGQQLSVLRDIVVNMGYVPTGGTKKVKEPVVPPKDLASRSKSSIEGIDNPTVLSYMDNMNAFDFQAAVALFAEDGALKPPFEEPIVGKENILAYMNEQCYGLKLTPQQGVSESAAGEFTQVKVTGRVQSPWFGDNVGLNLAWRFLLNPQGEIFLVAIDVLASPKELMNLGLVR

## CC1=C(/C=C/C(C)=C/C=C/C(C)=C/C=C/C=C(C)/C=C/C=C(C)/C=C/C2=C(C)C(=O)CCC2(C)C)C(C)(C)CCC1 [ECH, echinenone]
SynOCP1
  absorbance spectrum and photocycle of the holoprotein: All proteins were ECH-bound.
CrinOCP2
  X-ray crystal structure, 2.2 A: HPLC analysis indicated that both OCP2 variants contained ECH as the predominant carotenoid
